Data on 1 compound can be found in ChEMBL document CHEMBL4354807, “Natural Product Albiziabioside A Conjugated with Pyruvate Dehydrogenase Kinase Inhibitor Dichloroacetate To Induce Apoptosis-Ferroptosis-M2-TAMs Polarization for Combined Cancer Therapy” (J Med Chem, 2019).

Active and inactive are the calls of the source. The rule behind the calls is not given here.

Data set [1] deals with [Pyruvate dehydrogenase (acetyl-transferring)] kinase isozyme 1, mitochondrial (Homo sapiens) (UniProt Q15118). The experiment in a line: Inhibition of PDK1 (unknown origin) in plasma using PDK tide as substrate measured after 90 mins in presence of ATP by ADP-Glo luminescent kinase assay. In kind it is cell-free.
Data set [2] has as its system MCF7. Description: Induction of ferroptosis in human MCF7 cells assessed as cell death at 2 uM pretreated with ferroptosis inhibitor ferrostatin-1 followed by compound treatment by MTT assay. In kind it is functional, cell-based.
The test system of data set [3] is MCF7. Description: Anticancer activity against human MCF7 cells overexpressing PDK assessed as reduction in cell viability after 72 hrs by MTT assay. In kind it is functional, cell-based. To be noted: MCF7, 72 h. A general note: Tetrazolium dyes change colour on reduction, which living cells bring about.
The nature of data set [4]: Selectivity index, ratio IC50 for cytotoxicity against human HBMEC cells assessed as reduction in cell viability after 72 hrs by MTT assay to IC50 for anticancer activity against human MCF7 cells assessed as reduction in cell viability after 72 hrs by MTT assay.
Data set [5] has as its system MCF7. Description: Induction of apoptosis in human MCF7 cells assessed as downregulation of Bcl2 expression at 2 uM after 48 hrs by Western blot analysis relative to control. In kind it is functional.
Data set [6] concerns 4T1. Description: Reversal of immunosuppression against mouse 4T1 cells implanted in BALB/c mouse assessed as growth inhibition of distal tumor at 2 mg/kg administered intratumorally every 2 days for 2 weeks measured after 14 days. In kind it is functional, organism-based.
A short description of data set [7]: Selectivity index, ratio IC50 for cytotoxicity against human LO2 cells assessed as reduction in cell viability after 72 hrs by MTT assay to IC50 for anticancer activity against human A375 cells assessed as reduction in cell viability after 72 hrs by MTT assay. In kind it is toxicity, cell-based. As to conditions: LO2 cells versus A375 cells, read-out: Ratio IC50.

Data set [8] in a line: Stability of compound in PBS at pH 7.4 and 37 degree C measured after 2 hrs by HPLC analysis. It is filed as physicochemical. To be noted: buffer, pH 7.4, 2 h.
In data set [9] the test system is MCF7. Description: Effect on lipid peroxidation in human MCF7 cells assessed as increase in […] at 2 uM after 15 mins by BODIPY-C11 dye based fluorescence imaging analysis relative to control. In kind it is functional.
For data set [10], the system named is 4T1. Description: Reversal of immunosuppression against mouse 4T1 cells implanted in BALB/c mouse assessed as decrease in weight of primary tumor at 2 mg/kg administered intratumorally every 2 days for 2 weeks measured after 14 days. It is filed as functional, organism-based.
Data set [11] can be described thus: Selectivity index, ratio IC50 for cytotoxicity against human LO2 cells assessed as reduction in cell viability after 72 hrs by MTT assay to IC50 for anticancer activity against human MCF7 cells assessed as reduction in cell viability after 72 hrs by MTT assay. It is filed as toxicity, cell-based. As to conditions: LO2 cells versus MCF7 cells, read-out: Ratio IC50.

For data set [12], the system named is A-375. The experiment in a line: Anticancer activity against human A375 cells expressing PDK assessed as reduction in cell viability after 72 hrs by MTT assay. In kind it is functional, cell-based. As to conditions: A-375, 72 h.

In general, IC50 refers to the concentration that inhibits the measured activity by half. For the compound `CC1(C)CC[C@]2(C(=O)O)CC[C@]3(C)C(=CC[C@@H]4[C@@]5(C)CC[C@H](O[C@@H]6O[C@H](CO[C@@H]7OC[C@H](O)[C@H](O)[C@H]7O)[C@@H](O)[C@H](O)[C@H]6NC(=O)C(Cl)Cl)C(C)(C)[C@@H]5CC[C@]43C)[C@@H]2C1`, the inhibition entry in [1] was “inactive”. For the same compound, the outcome in data set [2] was inactive. Also, the concentration for half-maximal inhibition (IC50) in [3] turned out to be 430 nM; in data set [12] it was 3780 nM. Besides, in data set [4], the “Ratio IC50” value stood at 88.83. The “fold change (FC)” value in [5] is 0.5; in data set [9] it was 2.5. In addition, the outcome in data set [6] and in [10] was Active. In addition, the selectivity ratio at 72 h in data set [7] turned out to be 14.1; in [11] it was 124. The Stability result in data set [8] is given as “Stable”.
